Reference: the supplement of paper PMC10307832

Key:
Assay in all cases: relative viability (nuclei count vs DMSO), 5 days (fraction); higher = more cells survive
kb NB 142-70 + Dasatinib = compound: C1CSC2=C(C(=O)N1)SC3=C2C=C(C=C3)O [kb NB 142-70] + Cc1nc(Nc2ncc(C(=O)Nc3c(C)cccc3Cl)s2)cc(N2CCN(CCO)CC2)n1 [Dasatinib] (partner 0.075 µM)
Method in brief: (§1)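 Dosing by pin tool came one day after lung cancer cell lines were seeded in 1536-well plates, using either one drug or a fixed anchor-drug dose plus five library-drug doses (not always all listed) in √10 steps. After 5 days, nuclei were counted on 4× images. Relative viability is treated-well nuclei count divided by vehicle-well nuclei count, and values are medians of duplicate plates.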

[1] = compound: C1CSC2=C(C(=O)N1)SC3=C2C=C(C=C3)O [kb NB 142-70] + Nc1nc2[nH]cc(CCc3ccc(C(=O)N[C@@H](CCC(=O)O)C(=O)O)cc3)c2c(=O)[nH]1 [Pemetrexed] (partner 0.2 µM)
Method in brief: as §1

kb NB 142-70 + Olaparib = compound: C1CSC2=C(C(=O)N1)SC3=C2C=C(C=C3)O [kb NB 142-70] + O=C(c1cc(Cc2n[nH]c(=O)c3ccccc23)ccc1F)N1CCN(C(=O)C2CC2)CC1 [Olaparib] (partner 8 µM)
Method in brief: as §1

[2] = compound: NCC(=O)Nc1ccc(-n2nc(C(F)(F)F)cc2-c2ccc3c(ccc4ccccc43)c2)cc1 + CS(=O)(=O)CCNCc1ccc(-c2ccc3ncnc(Nc4ccc(OCc5cccc(F)c5)c(Cl)c4)c3c2)o1 [Lapatinib] (partner 2 µM)
Method in brief: as §1

[3] = compound: NCC(=O)Nc1ccc(-n2nc(C(F)(F)F)cc2-c2ccc3c(ccc4ccccc43)c2)cc1 + C[C@@H](Oc1cc(-c2cnn(C3CCNCC3)c2)cnc1N)c1c(Cl)ccc(F)c1Cl [Crizotinib] (partner 1 µM)
Method in brief: as §1

Cell Line | relative viability (kb NB 142-70 + Dasatinib; first compound 0.1 µM) | relative viability (kb NB 142-70 + Dasatinib; first compound 1 µM) | relative viability (kb NB 142-70 + Dasatinib; first compound 3.162 µM) | relative viability ([1]; first compound 0.1 µM) | relative viability ([1]; first compound 1 µM) | relative viability ([1]; first compound 3.162 µM) | relative viability (kb NB 142-70 + Olaparib; first compound 0.1 µM) | relative viability (kb NB 142-70 + Olaparib; first compound 1 µM) | relative viability (kb NB 142-70 + Olaparib; first compound 3.162 µM) | relative viability ([2]; first compound 0.02 µM) | relative viability ([2]; first compound 0.06325 µM) | relative viability ([2]; first compound 0.2 µM) | relative viability ([2]; first compound 0.6325 µM) | relative viability ([2]; first compound 2 µM) | relative viability ([3]; first compound 0.02 µM) | relative viability ([3]; first compound 0.06325 µM) | relative viability ([3]; first compound 0.2 µM) | relative viability ([3]; first compound 0.6325 µM) | relative viability ([3]; first compound 2 µM)
NCI-H2126 | 0.622 | 0.558 | 0.537 | 0.666 | 0.702 | 0.762 | 0.928 | 0.899 | 0.816 | 0.792 | 0.763 | 0.787 | 0.793 | 0.751 | 1 | 1 | 1.05 | 1.01 | 1.04
NCI-H3122 | 0.803 | 0.794 | 0.84 | 0.2 | 0.21 | 0.289 | 0.648 | 0.714 | 0.793 | 1.08 | 1.05 | 1.01 | 0.988 | 0.934 | 0.275 | 0.287 | 0.266 | 0.289 | 0.279
NCI-H1975 | 0.395 | 0.421 | 0.364 | 0.259 | 0.309 | 0.239 | 0.81 | 0.883 | 0.35 | 0.816 | 0.915 | 0.854 | 0.91 | 0.969 | 0.96 | 0.954 | 0.954 | 0.906 | 0.914
NCI-H1944 | 0.207 | 0.243 | 0.201 | 0.633 | 0.757 | 0.665 | 0.434 | 0.414 | 0.482 | 0.813 | 0.888 | 0.752 | 0.801 | 0.876 | 1.04 | 1.05 | 1.11 | 1.06 | 1.13
LU99A | 0.496 | 0.583 | 0.405 | 0.175 | 0.196 | 0.187 | 0.274 | 0.291 | 0.251 | 0.943 | 1.13 | 1.07 | 0.987 | 0.944 | 0.547 | 0.654 | 0.593 | 0.554 | 0.573
HCC-44 |  |  |  | 0.554 | 0.731 | 0.69 | 0.945 | 0.981 | 0.974 | 1.02 | 1.16 | 0.974 | 1.03 | 1.05 | 0.9 | 0.828 | 0.853 | 0.819 | 0.74
NCI-H1299 |  |  |  |  |  |  | 1.02 | 0.949 | 0.837 | 0.987 | 0.943 | 1.02 | 0.952 | 0.972 | 0.97 | 0.969 | 0.991 | 0.944 | 1
NCI-H727 | 0.427 | 0.354 | 0.272 |  |  |  | 0.743 | 0.592 | 0.68 | 1.02 | 0.968 | 0.655 | 0.917 | 0.9 | 1.03 | 0.816 | 0.897 | 0.787 | 0.899
LCLC-103H | 0.459 | 0.521 | 0.505 | 0.447 | 0.453 | 0.471 | 0.751 | 0.749 | 0.847 |  |  |  |  |  | 1.16 | 1.01 | 1.1 | 1.02 | 0.977
ABC-1 | 0.663 | 0.49 | 0.361 |  |  |  | 0.712 | 0.746 | 0.427 | 1.26 | 1.01 | 0.983 | 1.05 | 1.11 | 1.33 | 1.77 |  | 1.04 | 0.992
NCI-H1793 | 0.388 | 0.424 | 0.443 | 0.73 | 0.902 | 0.609 | 0.88 | 1.02 | 0.508 | 0.659 | 0.684 | 0.743 | 0.886 | 0.84 |  |  |  |  | 
ChaGo-K-1 | 0.509 | 0.559 | 0.543 | 0.261 | 0.26 | 0.257 | 0.489 | 0.361 | 0.362 |  |  |  |  |  | 1.14 | 1.08 | 1.01 | 1.05 | 1.03
SW 900 | 0.517 | 0.478 | 0.208 | 0.451 | 0.523 | 0.468 | 0.906 | 1.14 | 0.789 |  |  |  |  |  |  |  |  |  | 
NCI-H1563 | 0.464 | 0.467 | 0.424 | 0.864 | 0.961 | 0.774 |  |  |  | 0.841 | 0.998 | 0.758 | 0.945 | 0.909 | 0.887 | 0.91 | 0.881 | 0.835 | 0.997
A549 |  |  |  |  |  |  | 0.305 | 0.363 | 0.155 | 1.02 | 1.02 | 0.994 | 1.03 | 0.95 | 0.762 | 0.755 | 0.774 | 0.767 | 0.826
NCI-H2342 | 0.349 | 0.311 | 0.255 | 0.781 | 0.774 | 0.697 | 0.397 | 0.458 | 0.408 |  |  |  |  |  |  |  |  |  | 
NCI-H1623 | 0.552 | 0.558 | 0.428 |  |  |  |  |  |  |  |  |  |  |  |  |  |  |  | 
NCI-H522 | 1.03 | 0.856 | 0.704 | 1.03 | 0.871 | 0.745 | 0.69 | 0.587 | 0.509 |  |  |  |  |  |  |  |  |  | 
NCI-H1395 | 0.393 | 0.443 | 0.43 | 0.915 | 0.872 | 0.833 | 0.45 | 0.492 | 0.43 | 1.15 | 1.02 | 0.928 | 1.08 | 1.04 |  |  |  |  | 
IA-LM |  |  |  |  |  |  | 0.841 | 0.771 | 0.807 | 0.802 | 0.823 | 0.757 | 0.85 | 0.717 | 0.775 | 0.573 | 1.02 | 0.797 | 0.742
EBC-1 |  |  |  |  |  |  | 0.775 | 0.587 | 0.385 | 0.21 | 0.219 | 0.215 | 0.222 | 0.226 | 0.178 | 0.236 | 0.204 | 0.198 | 0.25
